Experimental data taken from US12728111B2, “Electrophilic compounds and electrophilic prodrugs for treating aneurysm” (University of Pittsburgh—Of the Commonwealth System of …, priority 2020, dated 2026).

Tests used:
[1] = tested on: oxLDL-induced Il1b and Mmp9 expression in BMDMs; assay: Real-time PCR of oxLDL-induced pro-inflammatory genes in BMDMs; type: cell-based, mouse; conditions: PPARγ antagonist or siRNA given with NO2—OA
Procedure: FIG. 3. NO2—OA prevents oxLDL-induced NFκB activation and pro-inflammatory cytokine production. Primary BMDMs were pretreated with vehicle, OA (2.5 μM) or NO2—OA (2.5 μM) for 1 h, followed by treatment of oxLDL (50 to 100 μg/ml) for the indicated times. (A, B) Nuclear (A) and cytoplasmic protein (B) fractions were isolated 1 h after oxLDL treatment and subjected to western blot with antibodies against p65, lamin a/c (nuclear marker) and GAPDH (cytosolic marker). Representative western blot images of three independent experiments are shown. (C) Quantification of the p65 nuclear to cytoplasmic ratio by image studio (normalized by the internal control, n=3). (D-F) Following 8 h of oxLDL treatment, levels of IL6, MCP1 and TNFα in the cell medium were measured by ELISA (n=4). (G) Real-time PCR quantification of gene expression levels of IL1b and Mmp9 in total mRNA extracted from the BMDMs. (C) Ordinary one-way ANOVA followed by Tukey's test was performed. As of (D-F), the basal level contains several non-detectable values, so ordinary one-way ANOVA followed by correction of FDR were performed for the oxLDL-treated groups only. Ordinary one-way ANOVA followed by Tukey's test was performed for (G). Data presented as mean±SEM. A p<0.05 for both the main test and post hoc test was considered statistically significant.
Mice suprarenal aortas were collected after the measurement of their diameter. Human aortic aneurysm samples were obtained from the Department of Cardiac Surgery at the University of Michigan. Samples from humans and mice were snap-frozen in liquid nitrogen for later processing. RNA from tissue was extracted using TRIzol (#15596018, Invitrogen). RNA from cells was isolated with the RNeasy Mini Kit (#74106, QIAGEN). SuperScript™ III First-Strand Synthesis System (#18080051, Invitrogen) was used to reverse-transcribe mRNA into cDNA. Gene expression was quantified in triplicates by quantitative real-time PCR (qPCR) using IQ SYBR Green Supermix (#1708882, Bio-Rad) with the indicated gene primers.

[2] = tested on: AngII/PCSK9-induced AAA mouse model; assay: Ang II plus hypercholesterolemia (AngII/PCSK9) induced AAA mouse model; type: in vivo
Procedure: FIG. 1. Characterization of the protective effect of NO2—OA (10-nitro-octadec-9-enoic acid) in the Ang II plus hypercholesterolemia-induced AAA mouse model. (A) Schematic illustration of the in vivo experimental design. Ten week old male C57BL/6 mice were IP injected with AAV carrying PCSK9 gain-of-function (D377Y) mutation and fed a western diet. After two weeks, each mouse was implanted with a pump delivering AngII at a rate of 1,500 ng/kg/min plus an additional pump containing either PEG-400 (vehicle), OA or NO2—OA with a delivery rate of 5 mg/kg/day (n=25 to 30 per group) and carried to the endpoint for another four weeks. Mice with ruptured aorta within the first week or with total plasma cholesterol less than 250 mg/dl were excluded from the study. (B) Representative morphological differences of the abdominal aorta. (C) AAA incidence calculated by using 1.2 mm as the cutoff diameter indicated by the dotted line in (D). (D) Average maximal diameter of the suprarenal aorta region. (E) Representative H&E and VVG staining of the paraffin-embedded suprarenal aortic cross-sections (5 μm). (F) Grade of elastic fiber degradation in the aorta (1 to 4). A 2×3 Fisher's exact test followed by posthoc test was performed for (C). For (D) and (F), the Kruskal-Wallis test followed by Dunn's multiple comparisons was performed. Continuous data are presented as mean±SEM. Scale bar=20 μm for (E). A p<0.05 for both the main test and post hoc test was considered statistically significant.
Ten weeks old male C57BL/6J mice were purchased from The Jackson Laboratory. The murine AAA model induced by AngII/PCSK9 gain-of-function mutation is well-established. After acclimation for 1 week, mice were fed a western diet (TD.88137, Envigo) and intraperitoneally injected with 2×1011 genomic copies of AAV-PCSK9.D377Y (AAV serotype 8, Penn Vector Core). Two weeks later, each mouse was subcutaneously implanted with two osmotic pumps (Model #2004, Alzet). One was loaded with AngII (#H-1706, Bachem), releasing at a rate of 1,500ng/kg/min, while the other one was loaded with PEG-400, OA or NO2—OA at a delivery rate of 5 mg/kg/day for OA or NO2—OA. After 4-weeks infusion, mice were euthanized and the maximal outer diameter of the suprarenal aorta was assessed with a digital caliper by a third person blinded to the treatment. Suprarenal aortas with a maximal diameter ≥50% larger than standard size (≥1.2 mm) were considered as abdominal aortic aneurysms. Mice dead within the first week of pump implantation or with a serum total cholesterol level less than 250 mg/dL were excluded from the study. All animal procedures were performed following the protocols approved by the Institutional Animal Care & Use Committee (IACUC) at the University of Michigan.
H&E and Verhoeff Van Gieson staining of paraffin or frozen sections of mouse suprarenal abdominal aorta were performed by the In-Vivo Animal Core at the University of Michigan. Elastin degradation grade was calculated as we previously reported.

SMILES | protective effect of NO2—OA on oxLDL-induced Il1b and Mmp9 expression [1] | AAA incidence ([2]; 5 mg/kg/day subcutaneous infusion, after 4 weeks, cutoff diameter 1.2 mm) [%] | maximal diameter of the suprarenal aorta region ([2]; 5 mg/kg/day subcutaneous infusion, after 4 weeks, mean±SEM) [mm] | ECM degradation / elastin fiber degradation ([2]; 5 mg/kg/day, 4 weeks, VVG staining, grade 1 to 4)
O=C(Nc1ccccc1)c1cc([N+](=O)[O-])ccc1Cl [GW9662, reference compound] | partially blocked |  |  | 
CCCCCCCCC=CCCCCCCCC(=O)O [OA, octadec-9-enoic acid, reference compound] |  | 69.6 | 1.78±0.18 | prominent
